{
  "source": "paper PMC9762789",
  "about": "“Chromone-based monoamine oxidase B inhibitor with potential iron-chelating activity for the treatment of Alzheimer’s disease” (Journal of Enzyme Inhibition and Medicinal Chemistry, 2022)",
  "key": {"[1]": {"assay": "iron (III) affinity constants and pFe3+ by spectrophotometric titration", "type": "physicochemical"}, "[2]": {"assay": "Pharmacokinetic study and brain distribution (UHPLC-MS/MS)", "type": "in vivo", "conditions": "rats; for AUC(0-t): read-out: AUC0–24; for MRT inf: read-out: MRT0–∞", "method": "UHPLC-MS/MS method was adopted to investigate the pharmacokinetic profiles of its metabolites after intravenous (i.v.) administration (2.34 mg/kg) and intragastric (i.g.) administration (15 mg/kg) of 17d in the tail vein of rats.\nRats were purchased from the Zhejiang Academy of Medical Sciences (Hangzhou, China). All rats were kept strictly following the requirements of experimental animal operation instructions, kept at a temperature (22 ± 2 °C), day/night cycle every 12 h in a constant environment. 12 h before the experiment, the rats were fasted but free to drink. For each rat, retro-orbital blood samples (0.2 ml) were obtained into EDTA soaked polythene tubes before drug administration and at time points of 0.083, 0.25, 0.50, 0.75, 1.0, 2.0, 4.0, 6.0, 8.0, 10, 12, and 24 h post-dosing. The collected blood samples were immediately centrifuged at 3500 rpm for 10 min at room temperature to separate plasma, and stored in a −80 °C refrigerator before use. […] The tissue was weighed and homogenised under ice bath conditions and was collected for further processing.\nBiological samples were performed with ACQUITY UPLC® H Class system, which was coupled to an Xevo TQ-S micro triple quadrupole mass spectrometer (Waters, Milford, MA, USA) with an ESI source and MassLynx^TM Workstation software version 4.2 (Waters, Milford, MA, USA). We used a BEH Shield RP C18 column (100 × 2.1 mm, 1.7 µm, Waters, Milford, MA, USA) for chromatographic separation, and the column temperature is kept at 30 °C. The mobile phase was composed of 30%, 0.2% formic acid aqueous solution (A) and 70%, 0.3% formic acid methanol solution (B) and is delivered at a flow rate of 0.2 ml/min. The temperature of the autosampler is set to 30 °C. The sample injection volume is 5 µl. Pharmacokinetic parameters of the analytes were calculated using the pharmacokinetic software DAS version 2.0 (Bontz Inc., Beijing, China). All data were expressed as mean ± SD."}, "[3]": {"target": "T1, MAO-B (Homo sapiens, UniProt P27338)", "T1 construct": "purchased Sigma-Aldrich", "T1 sequence (P27338 1-520)": "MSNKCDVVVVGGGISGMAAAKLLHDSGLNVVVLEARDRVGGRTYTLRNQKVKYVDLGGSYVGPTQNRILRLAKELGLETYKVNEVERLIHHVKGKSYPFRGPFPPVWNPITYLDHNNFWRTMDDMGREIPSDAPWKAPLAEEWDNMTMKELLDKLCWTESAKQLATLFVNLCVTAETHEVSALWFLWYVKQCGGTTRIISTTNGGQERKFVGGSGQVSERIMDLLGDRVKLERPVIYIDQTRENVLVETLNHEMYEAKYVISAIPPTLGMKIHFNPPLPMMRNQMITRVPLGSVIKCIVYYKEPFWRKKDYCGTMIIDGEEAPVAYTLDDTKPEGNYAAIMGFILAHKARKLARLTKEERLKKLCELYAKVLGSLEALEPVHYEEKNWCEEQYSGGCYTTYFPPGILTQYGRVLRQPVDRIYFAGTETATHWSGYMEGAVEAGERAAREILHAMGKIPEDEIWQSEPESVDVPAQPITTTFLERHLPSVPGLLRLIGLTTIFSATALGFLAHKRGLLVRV", "assay": "hMAO-B inhibition assay", "type": "biochemical", "method": "The reagents and enzymes (Human MAO-B and Human MAO-A) applied in this experiment were purchased from Sigma-Aldrich. According to the manuals, all components (substrate solution and enzyme solution) are diluted and placed aside for use. The detailed process has been mentioned in our early work[34]."}, "[4]": {"assay": "pKa determination by automated spectrophotometric titration", "type": "physicochemical", "conditions": "0.1 M KCl solution"}, "[5]": {"test_system": "PC-12 cells", "assay": "Cytotoxicity test (MTT)", "type": "cell-based", "conditions": "24 h, up to 50 µM", "method": "To examine the interaction mode of 17d on MAO-B, kinetic studies were carried out. From the Lineweaver–Burk plots (Figure 5(B)), we observed that 17d operated by a non-competitive inhibition mechanism. […] Subsequently, the potential toxic effect of 17d was investigated on pheochromocytoma (PC-12) cells.\nNeural pheochromocytoma-derived PC-12 cells at the log phase of their growth cycle (8 × 10^4 cells/ml) were added to each well (100 μl/well) and incubated for 24 h at 37 °C in a humidified atmosphere of 5% CO2. Then three replicates at various concentrations of the samples (3.13, 6.25, 12.5, 25, and 50 μM) were added to each well (100 μl/well). After incubating for 24 h, 20 μl of MTT solution (5 mg/ml/well) was added to each culture medium, which was then incubated for another 4 h. Then DMSO was added to each well (150 μl/well). After 10 min at room temperature, the OD values of each well were measured on a Microplate Reader (BioTek ELx800, Winooski, VT) at the wavelength of 490 nm."}, "[6]": {"conditions": "DMSO: KCl (0.1 M) = 1:1.5 (v/v)"}, "[7]": {"conditions": "rat, plasma, iv, i.v. 2.34 mg/kg, mean ± SD, n = 3"}, "[8]": {"conditions": "rat, plasma, po, i.g. 15 mg/kg, mean ± SD, n = 3"}},
  "note": "Entries after “also recorded” stand apart in the source; their conditions may differ. Like-named read-outs stand apart in the source and are kept apart here.",
  "data": [
    {"compound": "COc1ccc2c(=O)c(CNCCn3ccc(=O)c(O)c3C)coc2c1", "note": "[Compound 17d, 3-Hydroxy-1–(2-(((7-methoxy-4-oxo-4H-chromen-3-yl)methyl)amino)ethyl)-2-methylpyridin-4(1H)-one]", "values": [
      {"measurement": "Log β1", "setting": "[1]; [6]", "value": 13.50},
      {"measurement": "Log β2", "setting": "[1]; [6]", "value": 25.21},
      {"measurement": "Log β3", "setting": "[1]; [6]", "value": 35.13},
      {"measurement": "pFe^3+", "setting": "[1]; calculated from Log β values obtained in DMSO: KCl (0.1 M) = 1:1.5 (v/v)", "value": 18.52},
      {"measurement": "AUC(0-inf)", "setting": "[2]; [7]", "value": "749 ± 87.1", "unit": "ng·h/mL"},
      {"measurement": "Cmax", "setting": "[2]; [7]", "value": "2150 ± 637", "unit": "ng/mL"},
      {"measurement": "Tmax", "setting": "[2]; [7]", "value": 4.98, "unit": "min"},
      {"measurement": "clearance", "setting": "[2]; [7]", "value": 52.5, "unit": "mL/min/kg"},
      {"measurement": "half-life", "setting": "[2]; [7]", "value": 19.2, "unit": "min"},
      {"measurement": "AUC(0-t)", "setting": "[2]; [7]", "value": "745 ± 88.4", "unit": "ng·h/mL"},
      {"measurement": "MRT inf", "setting": "[2]; [7]", "value": "15 ± 4.8", "unit": "min"},
      {"measurement": "bioavailability", "setting": "[2]; rat, plasma, oral, i.g. 15 mg/kg vs i.v. 2.34 mg/kg, read-out: F (bioavailability)", "value": 9.25, "unit": "%"},
      {"measurement": "AUC(0-inf)", "setting": "[2]; [8]", "value": "444 ± 65.3", "unit": "ng·h/mL"},
      {"measurement": "Cmax", "setting": "[2]; [8]", "value": "390 ± 50.1", "unit": "ng/mL"},
      {"measurement": "Tmax", "setting": "[2]; [8]", "value": 15, "unit": "min"},
      {"measurement": "half-life", "setting": "[2]; [8]", "value": "30.6 ± 10.8", "unit": "min"},
      {"measurement": "AUC(0-t)", "setting": "[2]; [8]", "value": "439 ± 59.6", "unit": "ng·h/mL"},
      {"measurement": "MRT inf", "setting": "[2]; [8]", "value": "48.6 ± 5.4", "unit": "min"},
      {"measurement": "Brain 17d content", "setting": "[2]; i.g. 15 mg/kg, collected at Cmax time point", "value": "6.02 ± 0.08", "unit": "ng/g"},
      {"measurement": "V", "setting": "[2]; i.v. 2.34 mg/kg, mean ± SD, n = 3", "value": "1.46 ± 0.19", "unit": "L/kg"},
      {"measurement": "IC50", "setting": "[3]", "value": "67 ± 4.3", "unit": "nM"},
      {"measurement": "SI: hMAO-B selectivity index = IC50 (hMAO-A)/IC50 (hMAO-B)", "setting": "[3]", "value": 11.0},
      {"measurement": "inhibition at 0.1 µM", "setting": "[3]; hMAO-B, 100 nM, read-out: Inhibitory rate (%, 100 nM)", "value": "48.9 ± 1.4", "unit": "%"},
      {"measurement": "pKa", "setting": "[4]; read-out: pKa1", "value": 2.86},
      {"measurement": "pKa", "setting": "[4]; read-out: pKa2", "value": 9.78},
      {"measurement": "cytotoxicity", "setting": "[5]", "value": "no cytotoxicity; also recorded: noncytotoxic"},
      {"measurement": "melting point", "value": "252 to 254", "unit": "°C"}
    ]}
  ]
}
